Here are results for eight compounds from patent publication US5011849A, “Compounds for treating and preventing cognitive diseases and depression and methods of making same” (Hoffmann-La Roche Inc., priority 1988, dated 1991).

One assay addresses T1, MAO (substrate PEA) (Rattus norvegicus, UniProt P19643).
T1 construct: 20 μl of rat brain homogenate; from tissue; host or cells: rat brain homogenate
T1 sequence (P19643 1-520): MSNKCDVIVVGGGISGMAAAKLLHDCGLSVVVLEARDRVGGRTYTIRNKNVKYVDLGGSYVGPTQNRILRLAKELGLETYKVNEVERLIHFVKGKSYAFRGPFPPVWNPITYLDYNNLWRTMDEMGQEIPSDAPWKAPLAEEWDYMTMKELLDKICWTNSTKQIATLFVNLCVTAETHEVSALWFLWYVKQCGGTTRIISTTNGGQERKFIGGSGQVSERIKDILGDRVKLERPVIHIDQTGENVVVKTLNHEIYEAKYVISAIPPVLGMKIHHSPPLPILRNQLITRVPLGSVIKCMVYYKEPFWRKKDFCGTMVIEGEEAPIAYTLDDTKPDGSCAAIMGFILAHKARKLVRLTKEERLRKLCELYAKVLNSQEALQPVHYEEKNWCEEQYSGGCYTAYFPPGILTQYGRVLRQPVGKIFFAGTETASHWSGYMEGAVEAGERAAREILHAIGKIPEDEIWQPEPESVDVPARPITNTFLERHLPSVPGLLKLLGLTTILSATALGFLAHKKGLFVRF
As to the kind of experiment: in vitro MAO inhibition in rat brain homogenate, substrate 14C-phenylethylamine (PEA). Type of assay: biochemical. The note with it: substrate 14C-phenylethylamine (PEA) 2.10^-5 Mol/l, pH 7.4, 37° C., preincubation 30 minutes, incubation 10 minutes. On the procedure:
(§1) The MAO inhibiting activity of the compounds in accordance with the invention can be determined using standard methods. Thus, the preparations to be tested were subjected to the in vitro test described hereinafter, which followed the method published by R. J. Wurtmann and J. A. Axelrod [Biochem. Pharmac. 12, 1439-1441 (1963)].
(§2) Isolated rat brains are homogenized in the ratio 1:4 (weight/volume) in 0.1 molar potassium phosphate buffer (pH 7.4). whereupon the homogenates are diluted in the ratio 1:4 (volume/volume) with the same buffer and stored at -20°. A mixture of the following composition is used for the incubation:
(§3) 100 μl of 1M phosphate buffer (pH 7.4);
(§4) 100 μl solubilizate of the substance to be tested in water or dimethyl sulfoxide;
(§5) 20 μl of rat brain homogenate; and as the substrate
(§6) 80 μl of ^14 C-serotonin (5-HT) or ^14 C-phenylethylamine (PEA), in each case 100,000 decays per minute, corresponding to a final concentration of 2.10^-4 Mol/l and, respectively, 2.10^-5 Mol/l.
(§7) Prior to the addition of the substrate a preincubation at 37° C. was effected for 30 minutes. The incubation (in the presence of the substrate) was also effected at 37° C. and lasted 10 minutes.
(§8) The reaction is stopped by the addition of 200 μl of 2N hydrochloric acid.
(§9) The deaminated product, depending on the use of 5-HT or of PEA as the substrate, is extracted by shaking for 10 minutes with 5 ml of diethyl ether or with 5 ml of n-heptane, whereupon the mixture is centrifuged, the aqueous phase is frozen in a dry-ice bath and the organic phase is poured into a counting glass.
(§10) The activity of the MAO in comparison to control homogenates (without substance to be tested) is determined on the basis of the β-counter value and the IC 50 is defined as that concentration of a substance to be tested which decreases the activity of the MAO in the substrate 5-HT or PEA to 50%.

For a further assay, the target named is T2, MAO (substrate 5-HT) (Rattus norvegicus, UniProt P21396).
T2 construct: 20 μl of rat brain homogenate; from tissue; host or cells: rat brain homogenate
T2 sequence (P21396 1-526): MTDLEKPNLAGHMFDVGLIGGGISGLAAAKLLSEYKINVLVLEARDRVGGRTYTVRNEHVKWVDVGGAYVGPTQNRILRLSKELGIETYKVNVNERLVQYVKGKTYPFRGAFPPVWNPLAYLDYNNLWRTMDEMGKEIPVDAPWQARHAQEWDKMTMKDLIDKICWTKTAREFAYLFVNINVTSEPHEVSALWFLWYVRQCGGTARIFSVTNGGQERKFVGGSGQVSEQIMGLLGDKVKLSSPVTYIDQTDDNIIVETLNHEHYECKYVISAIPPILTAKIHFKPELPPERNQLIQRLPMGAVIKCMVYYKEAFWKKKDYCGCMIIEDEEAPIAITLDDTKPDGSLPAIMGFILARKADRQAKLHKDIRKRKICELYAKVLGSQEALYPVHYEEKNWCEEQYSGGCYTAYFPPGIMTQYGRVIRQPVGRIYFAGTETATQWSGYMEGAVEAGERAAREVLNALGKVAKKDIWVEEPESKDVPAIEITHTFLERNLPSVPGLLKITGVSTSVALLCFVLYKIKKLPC
As to the kind of experiment: in vitro MAO inhibition in rat brain homogenate, substrate 14C-serotonin (5-HT). It is filed as biochemical. The note with it: substrate 14C-serotonin (5-HT) 2.10^-4 Mol/l, pH 7.4, 37° C., preincubation 30 minutes, incubation 10 minutes, read-out: IC 50, 5-HT. On the procedure: as §1, §2, §3, §4, §5, §6, §7, §8, §9, §10

Where only a bound is given, the exact number is not on record here.

Turning to `NCCNC(=O)c1ncsc1-c1ccccc1` [5-phenyl-4-thiazol, N-(2-aminoethyl)-5-phenyl-4-thiazolecarboxamide], the figures for the IC50 on MAO (substrate PEA) and on MAO (substrate 5-HT) were 20000 nM and 20 nM, respectively.
`NCCNC(=O)c1ncsc1-c1cccc(F)c1` [5-(3-fluorophenyl)-4-thiazol, N-(2-aminoethyl)-5-(3-fluorophenyl)-4-thiazolecarboxamide]: the IC50 was over 10000 nM against MAO (substrate PEA) and 20 nM at MAO (substrate 5-HT).
For `NCCNC(=O)c1ncsc1-c1ccccc1F` [5-(2-fluorophenyl)-4-thiazol, N-(2-aminoethyl)-5-(2-fluorophenyl)-4-thiazolecarboxamide], the IC50 against MAO (substrate PEA) is over 10000 nM; on MAO (substrate 5-HT) it was 40 nM.
Take `NCCNC(=O)c1ncsc1-c1cc(Cl)cc(Cl)c1` [5-(3,5-dichlorophenyl)-4-thiazol, N-(2-aminoethyl)-5-(3,5-dichlorophenyl)-4-thiazolecarboxamide]: the values for the IC50 against MAO (substrate PEA) and on MAO (substrate 5-HT) were 300 nM and 7 nM, respectively.
With `NCCNC(=O)c1ncoc1-c1ccco1` [5-(2-furyl)-4-oxazol, N-(2-aminoethyl)-5-(2-furyl)-4-oxazolecarboxamide], the IC50 worked out at 2000 nM at MAO (substrate PEA) and 22 nM on MAO (substrate 5-HT).
In the case of `NCCNC(=O)c1ncsc1-c1ccc(F)cc1` [5-(4-fluorophenyl)-4-thiazol, N-(2-aminoethyl)-5-(4-fluorophenyl)-4-thiazolecarboxamide], the IC50 against MAO (substrate PEA) worked out at 100000 nM; at MAO (substrate 5-HT), 60 nM.
`NCCNC(=O)c1ncsc1-c1ccc(F)cc1F` [5-(2,4-difluorophenyl)-4-thiazol, N-(2-aminoethyl)-5-(2,4-difluorophenyl)-4-thiazolecarboxamide]: the IC50 came out at 3600 nM against MAO (substrate PEA) and 120 nM on MAO (substrate 5-HT).
Turning to `NCCNC(=O)c1ncoc1-c1ccc(Cl)cc1` [5-(4-chlorophenyl)-4-oxazol, N-(2-aminoethyl)-5-(4-chlorophenyl)-4-oxazolecarboxamide], the IC50 at MAO (substrate PEA) was over 100000 nM; on MAO (substrate 5-HT) it was under 10 nM.
